Results published in paper PMC6008493, “Thioamide substitution to probe the hydroxyproline recognition of VHL ligands” (Bioorganic & Medicinal Chemistry, 2018).
Like-named read-outs stand apart in the source and are kept apart here.

Key:
[1] = Quantification of ligand trans and cis isomers in solution by NMR; type: physicochemical; conditions: free ligand in solution
Excerpt: We next evaluated the impact of thioamide substitutions to the n → π^∗ interaction in the ligand free state in solution. This interaction is only possible when the Hyp (thio)amide group is in the trans isomer conformation (Fig. 1A). Thus, the ratio between the trans and cis isomers at equilibrium can be used to infer the strength of the n → π^∗ interaction.[13]
Quantification of ligands trans and cis isomers in solution.

[2] = biological target: VBC complex (VHL, elongin B, elongin C) (Homo sapiens, UniProt P40337); assay: Isothermal titration calorimetry (ITC) direct titration; conditions: for ΔH: ITC enthalpy of binding; for ΔH / Kd: 25°C; for Kd: read-out: Kd ITC, pH 7, 3% DMSO
[3] = biological target: T1, VBC protein (VHL, elongin B, elongin C) (Homo sapiens, UniProt P40337); assay: Competitive fluorescence polarization (FP) binding assay displacing FAM-labelled HIF-1α peptide
T1 construct: made in house
Description: Control wells contained VBC and peptide in the absence of compound (maximum signal), and peptide in the absence of protein (background signal). Data were obtained in triplicate and the percentage of displacement was determined and graphed against log[VHL inhibitors]. Average IC50 values and the standard error of the mean (SEM) were determined for each titration using Prism 6. Dissociation constants Kd were back-calculated from the measured IC50 values using a displacement binding model, as described previously.^6

[4] = back-calculated from measured IC50, 15 nM VBC, 10 nM FAM-HIF-1α peptide, pH 7, read-out: Kd FP
[5] = relative to unmodified ligand 1

trans:cis (%) - cis isomer [1] [%] | trans:cis (%) - trans isomer [1] [%] | ΔH [2] [kcal/mol] | Kd [2] [µM] | Kd [3, 4] [µM] | Kd ([3]; text summary of FP and ITC, read-out: Kd) [µM] | loss in binding affinity by ITC [2, 5] | loss in binding affinity by FP [3, 5] | SMILES
8 | 92 | – | – | – | – | – | – | CC(=O)N[C@@H](C)C(=O)N1C[C@H](O)C[C@H]1C(=O)NCc1ccc(-c2scnc2C)cc1 [compound 1]
10 | 90 | -2.56 ± 0.01 | 21.6 ± 0.8 | > 13 | > 10 | – | – | CC(=O)N[C@@H](C)C(=S)N1C[C@H](O)C[C@H]1C(=S)NCc1ccc(-c2scnc2C)cc1 [compound 4, N-((S)-1-((2S,4R)-4-hydroxy-2-((4-(4-methylthiazol-5-yl)benzyl)carbamothioyl)pyrrolidin-1-yl)-1-thioxopropan-2-yl)acetamide]
11 | 89 | – | – | – | – | – | – | CC(=O)N[C@@H](C)C(=O)N1C[C@H](O)C[C@H]1C(=S)NCc1ccc(-c2scnc2C)cc1 [compound 2, N-((S)-1-((2S,4R)-4-Hydroxy-2-((4-(4-methylthiazol-5-yl)benzyl)carbamothioyl)pyrrolidin-1-yl)-1-oxopropan-2-yl)acetamide]
6 | 94 | -6.79 ± 0.01 | 0.76 ± 0.02 | 1 ± 0.4 | – | twofold | twofold | CC(=O)N[C@@H](C)C(=S)N1C[C@H](O)C[C@H]1C(=O)NCc1ccc(-c2scnc2C)cc1 [compound 3, (2S,4R)-1-((S)-2-Acetamidopropanethioyl)-4-hydroxy-N-(4-(4-methylthiazol-5-yl)benzyl)pyrrolidine-2-carboxamide]
